Measurements reported in US20210317141A1, “OXOPYRIDO[1,2-A]PYRIMIDINE COMPOUNDS FOR THE TREATMENT AND PROPHYLAXIS OF BACTERIAL INFECTION” (Hoffmann-La Roche Inc., priority 2018, published 2021).
In brackets after ≈: the same amount, converted by molar mass. Like-named read-outs stand apart in the source and are kept apart here.

Columns and labels:
[1] = Lyophilisation solubility assay (LYSA); assay type: physicochemical; conditions: aqueous buffer, thermodynamic from solid; 0.05 M phosphate buffer, pH 6.5; * = detection limit
Experimental: The solubility of compounds of present invention was assessed by LYSA assay. Samples were prepared in duplicate from 10 mM DMSO stock solutions (20 μL) diluted in 30 μL pure DMSO. After evaporation of DMSO with a centrifugal vacuum evaporator, the residue was dissolved in 0.05 M phosphate buffer (150 μL, pH 6.5), stirred for one hour and shook for two hours. After one night, the solution was filtered using a microtiter filter plate. Then the filtrate and its 1/10 dilution were analyzed by HPLC-UV. In addition, a four-point calibration curve was prepared from the 10 mM stock solutions and used for the solubility determination of the compounds.

E. coli (ATCC 25922) = experiment: Minimal Inhibitory Concentration (MIC) assay; assay type: cell-based; conditions: Escherichia coli, read-out: MIC (μg/mL) E. coli ATCC 25922
Experimental: The in vitro potency of compounds to inhibit E. coli (ATCC 25922) growth was assessed by MIC (Minimal Inhibitory Concentration) assay. Samples were prepared from 10 mM DMSO stock solutions. After serial 2-fold dilution in DMSO in a master plate (Greiner, Cat No: 651201), 180 μL sterile distilled water was added to 20 μL each aliquot of the samples. Then […], diluted compounds were transferred into a new assay plate (Costar, 3599).
The growth medium […] Mueller Hinton Broth (CAMHB) was prepared by adding the 20 mg per liter CaCl2) and 20 mg per liter MgCl2 into the MHB medium (Jianglai Company, sterilized).
Vials of each of the test microorganisms were maintained frozen in the vapor phase of a liquid nitrogen freezer. Took out the bacteria E. coli ATCC 25922 (KWIKSTIK, 0335K) from liquid nitrogen freezer, thawed it in room temperature, and diluted the bacterial in the CAMHB medium to achieve a final inoculum of 5×10^5 CFU/mL. 90 μL CAMHB with bacteria was dispensed to the assay plate and pipetted 5 times.
Then the assay plates were incubated for 20 hours at 35° C. in ambient air. Following incubation, the MIC (μg/mL), the lowest concentration of drug that inhibits visible growth of the microorganism was read and recorded throw the microscope.

[2] = ATCC25922, CAMHB, 20 hours at 35° C.

Row | solubility thermodynamic [1] | MIC (E. coli (ATCC 25922); [2]) | Structure (SMILES) | MIC (E. coli (ATCC 25922); ATCC25922, 20 h)
1 | 43 µg/mL (≈ 78.2 µM) |  | CNc1cc(F)c(F)c2c1[nH]c1ncc(-c3cc(N4CCOCC4)c4ncc(C(=O)O)c(=O)n4c3)c(N(C)C)c12 [Example 1.32, 7-[4-(Dimethylamino)-5,6-difluoro-8-(methylamino)-9H-pyrido[2,3-b]indol-3-yl]-9-morpholino-4-oxo-pyrido[1,2-a]pyrimidine-3-carboxylic acid] | 
2 |  | 0.697 µg/mL (≈ 1.27 µM) | CNc1cc(F)cc2c1[nH]c1ncc(-c3ccc4ncc(C(=O)O)c(=O)n4c3)c(N3CCC(c4ccccc4)C3)c12 (stereo not shown) [Example 1.25, 7-(6-Fluoro-8-(methylamino)-4-(3-phenylpyrrolidin-1-yl)-9H-pyrido[2,3-b]indol-3-yl)-4-oxo-4H-pyrido[1,2-a]pyrimidine-3-carboxylic acid] | 
3 | > 840 µg/mL | 0.84 µg/mL (≈ 1.39 µM) | CNc1cc(F)c(F)c2c1[nH]c1ncc(-c3cc(CN4CCC5CN(C)CC54)c4ncc(C(=O)O)c(=O)n4c3)c(N(C)C)c12 (stereo not shown) [Example 2.06, 7-[4-(Dimethylamino)-5,6-difluoro-8-(methylamino)-9H-pyrido[2,3-b]indol-3-yl]-9-[(5-methyl-2,3,3a,4,6,6a-hexahydropyrrolo[2,3-c]pyrrol-1-yl)methyl]-4-oxo-pyrido[1,2-a]pyrimidine-3-carboxylic acid] | 
4 | 275 µg/mL (≈ 491 µM) | 0.164 µg/mL (≈ 0.293 µM) | CNc1cc(F)c(F)c2c1[nH]c1ncc(-c3cc(C)c4ncc(C(=O)O)c(=O)n4c3)c(N3CCC4CN(C)CC43)c12 (stereo not shown) [Example 1.33, 7-[5,6-Difluoro-4-(5-methyl-2,3,3a,4,6,6a-hexahydropyrrolo[2,3-c]pyrrol-1-yl)-8-(methylamino)-9H-pyrido[2,3-b]indol-3-yl]-9-methyl-4-oxo-pyrido[1,2-a]pyrimidine-3-carboxylic acid] | 
5 | 65 µg/mL (≈ 111 µM) |  | CNc1cc(F)c(F)c2c1[nH]c1ncc(-c3ccc4ncc(C(=O)O)c(=O)n4c3)c(N3CC(CN(C)C)C(F)(F)C3)c12 (stereo not shown) [Example 1.22, 7-[4-[4-[(dimethylamino)methyl]-3,3-difluoro-pyrrolidin-1-yl]-5,6-difluoro-8-(methylamino)-9H-pyrido[2,3-b]indol-3-yl]-4-oxo-pyrido[1,2-a]pyrimidine-3-carboxylic acid] | 
6 | 165 µg/mL (≈ 276 µM) | 0.0707 µg/mL (≈ 0.118 µM) | CNc1cc(F)c(F)c2c1[nH]c1ncc(-c3ccc4ncc(C(=O)O)c(=O)n4c3)c(N3CCC(CN(C)CC(F)F)C3)c12 (stereo not shown) [Example 1.20, 7-(4-(3-(((2,2-Difluoroethyl)(methyl)amino)methyl)pyrrolidin-1-yl)-5,6-difluoro-8-(methylamino)-9H-pyrido [2,3-b]indol-3-yl)-4-oxo-4H-pyrido[1,2-a]pyrimidine-3-carboxylic acid] | 
7 |  |  | CNc1cc(F)c(F)c2c1[nH]c1ncc(-c3ccc4ncc(C(=O)O)c(=O)n4c3)c(N3CCN4CCOCC4C3)c12 (stereo not shown) [Example 1.28, 7-(5,6-Difluoro-4-(hexahydropyrazino[2,1-c][1,4]oxazin-8(1H)-yl)-8-(methylamino)-9H-pyrido[2,3-b]indol-3-yl)-4-oxo-4H-pyrido[1,2-a]pyrimidine-3-carboxylic acid compound with formic acid] | 0.356 µg/mL (≈ 0.634 µM)
8 | 60 µg/mL (≈ 110 µM) |  | CNc1cc(F)c(F)c2c1[nH]c1ncc(-c3ccc4ncc(C(=O)O)c(=O)n4c3)c(N3CCC4CN(C)CC43)c12 (stereo not shown) [Example 1.08, 7-[5,6-Difluoro-4-(5-methyl-2,3,3a,4,6,6a-hexahydropyrrolo[2,3-c]pyrrol-1-yl)-8-(methylamino)-9H-pyrido[2,3-b]indol-3-yl]-4-oxo-pyrido[1,2-a]pyrimidine-3-carboxylic acid] | 
9 | 31 µg/mL (≈ 58.1 µM) | 0.759 µg/mL (≈ 1.42 µM) | CNc1c(F)c(F)cc2c1[nH]c1ncc(-c3ccc4ncc(C(=O)O)c(=O)n4c3)c(N3CC[C@@H](N(C)C)C3)c12 [Example 1.27, (R)-7-(4-(3-(Dimethylamino)pyrrolidin-1-yl)-6,7-difluoro-8-(methylamino)-9H-pyrido[2,3-b]indol-3-yl)-4-oxo-4H-pyrido[1,2-a]pyrimidine-3-carboxylic acid] | 
